Measurements taken from patent publication US7846697B2, “Method of producing a low molecular weight organic compound in a cell” (BLMaps, priority 2003, dated 2010).

What was measured:
Format in all cases: cell-based
[1] = test system: E. coli strain JM109 transformants; test: Toxicity of vanillin with IPTG-induced expression of UGT85B1 or AS, growth on plates; settings: JM109 [pJH410], IPTG induction No; further: key: −: No growth; +: weak growth; ++: good growth
[2] = test system: E. coli strain KO1418 transformants; test: as above; set-up: key to the marks not given beside the values; settings: KO1418 [pJH410]
E. coli strain JM109 = test: Vanillin sensitivity (STV) on solid LB growth medium; settings: no growth at 1/10000 dilution, growth at 1/100 severely inhibited, 24 hours
Method: (§1) The three different E. coli strains TOP10, JM109, and KO1418 were grown for 18 hours in the appropriate media, after which serial dilutions in growth medium (dilution factors 1, 1/100, 1/10000 and 1/1000000) were made. Droplets of these cell suspensions were applied to Petri dishes containing solid LB growth medium with various concentrations of vanillin, and the plates were incubated at the appropriate growth temperature for 24 hours (E. coli), after which they were photographed. […] This number constituted the STV (Sensitivity To Vanillin) level. The STV numbers for the different microorganisms studied can be seen in Table 9.1.

E. coli strain KO1418 = test: as above; settings: no growth at 1/10000 dilution, growth at 1/100 severely inhibited, 24 hours
Method: as §1

E. coli strain TOP10 = test: as above; settings: no growth at 1/10000 dilution, growth at 1/100 severely inhibited, 24 hours
Method: as §1

[3] = test system: E. coli strain KO1418 transformants; test: Toxicity of vanillin with constitutive expression of UGT85B1 or AS, growth on plates
Source text: (§2) For experimentation with constitutive expression of UGT85B1 and AS, the E. coli strains JM109, and K01418 were transformed with the constructed plasmids pJH 430, pJH431, pJH432, pJH433, pJH434, pJH435, pJH436, pJH437, pJH438, pJH439, pJH440, and pJH441, and pKOL30 as control, employing standard transformation protocols. Transformants were selected for ampicilin resistance, and two transformants of each E. coli strain with each plasmid were kept for expression experiments. The E. coli transformants were inoculated from plate cultures into 2 ml liquid growth medium (LB medium containing ampicilin at 100 μg/ml), and allowed to grow for 20 hours at 37° C. The precultures were diluted 100 times 10^4 times and 10^6 times in growth medium, and 4 μl droplets of these cell suspensions were applied to the surface of Petri dishes containing solid LB-ampicilin medium containing varying concentrations of vanillin (based on the STV determinations described above). The plates were incubated at 37° C. for 24 hours, after which growth on the various concentrations of vanillin was monitored and recorded.

[4] = test system: E. coli strain JM109 transformants; test: as above
Source text: as §2

[5] = test system: E. coli strain JM109 transformants; test: Toxicity of vanillin with IPTG-induced expression of UGT85B1 or AS, growth on plates; further: key: −: No growth; +: weak growth; ++: good growth
Method: The E. coli strains TOP10, JM109, and KO1418 were all transformed with the constructed plasmids pJH401, pJH402, pJH411 and pJH412, and pKK223-3 as control, employing standard transformation protocols. Transformants were selected for ampicilin resistance, and two transformants of each E. coli strain with each plasmid were kept for expression experiments. The E. coli transformants were inoculated from plate cultures into 2 ml liquid growth medium (LB medium containing ampicilin at 100 μg/ml), and allowed to grow for 20 hours at 37° C. The precultures were diluted 100 times 10^4 times and 10^6 times in growth medium, and 4 μl droplets of these cell suspensions were applied to the surface of Petri dishes containing solid LB-ampicilin medium containing varying concentrations of vanillin (based on the STV determinations described above), and without or with (to induce gene expression) 1 mM isopropyl thiogalactoside (IPTG). The plates were incubated at 37° C. for 24 hours, after which growth on the various concentrations of vanillin was monitored and recorded.

In the case of COc1cc(C=O)ccc1O [Vanillin, vanillin], the growth ([1]; 0.08% vanillin) is reported as “++”, the growth ([1]; 0.2% vanillin) is reported as “−” and the growth ([2]; 0.08% vanillin, IPTG induction Yes) is reported as “++”. For the same compound, the growth ([2]; 0.12% vanillin, IPTG induction No) was “++”, the growth ([2]; 0.2% vanillin, IPTG induction Yes) was “++” and the “STV (Sensitivity To Vanillin) level” value (E. coli strain JM109) was 0.14 % (w/v). The “STV (Sensitivity To Vanillin) level” value (E. coli strain KO1418) was 0.18 % (w/v), the “STV (Sensitivity To Vanillin) level” value (E. coli strain TOP10) was 0.12 % (w/v) and the growth ([3]; KO1418 [pJH430], 0.08% vanillin) was “+++”. The growth ([3]; KO1418 [pJH430], 0.12% vanillin) was “+++”, the growth ([3]; KO1418 [pJH430], 0.16% vanillin) was “+++” and the growth ([3]; KO1418 [pJH431], 0.08% vanillin) was “+++”. For the same compound, the growth ([3]; KO1418 [pJH431], 0.12% vanillin) was “+++”, the growth ([3]; KO1418 [pJH431], 0.16% vanillin) was “+++” and the growth ([3]; KO1418 [pJH432], 0.08% vanillin) was “+++”. The growth ([3]; KO1418 [pJH432], 0.12% vanillin) was “+++”, the growth ([3]; KO1418 [pJH432], 0.16% vanillin) was “+” and the growth ([3]; KO1418 [pJH433], 0.08% vanillin) was “+++”. For the same compound, the growth ([3]; KO1418 [pJH433], 0.12% vanillin) was “+++”, the growth ([3]; KO1418 [pJH433], 0.16% vanillin) was “+++” and the growth ([3]; KO1418 [pKOL30], 0.08% vanillin) was “+++”. For the same compound, the growth ([3]; KO1418 [pKOL30], 0.12% vanillin) was “++”, the growth ([3]; KO1418 [pKOL30], 0.16% vanillin) was “+” and the growth ([4]; JM109 [pJH430], 0.08% vanillin) was “+++”. The growth ([4]; JM109 [pJH430], 0.12% vanillin) was “+++”, the growth ([4]; JM109 [pJH430], 0.16% vanillin) was “++” and the growth ([4]; JM109 [pJH431], 0.08% vanillin) was “+++”. The growth ([4]; JM109 [pJH431], 0.12% vanillin) was “+++”, the growth ([4]; JM109 [pJH431], 0.16% vanillin) was “++” and the growth ([4]; JM109 [pJH432], 0.08% vanillin) was “+++”. For the same compound, the growth ([4]; JM109 [pJH432], 0.12% vanillin) was “+++”, the growth ([4]; JM109 [pJH432], 0.16% vanillin) was “+” and the growth ([4]; JM109 [pJH433], 0.08% vanillin) was “+++”. For the same compound, the growth ([4]; JM109 [pJH433], 0.12% vanillin) was “+++”, the growth ([4]; JM109 [pJH433], 0.16% vanillin) was “+” and the growth ([4]; JM109 [pKOL30], 0.08% vanillin) was “+++”. The growth ([4]; JM109 [pKOL30], 0.12% vanillin) was “++”, the growth ([4]; JM109 [pKOL30], 0.16% vanillin) was “−” and the growth ([5]; JM109 [pJH401], 0.08% vanillin, IPTG induction No) was “++”. For the same compound, the growth ([5]; JM109 [pJH401], 0.08% vanillin, IPTG induction Yes) was “++”, the growth ([5]; JM109 [pJH401], 0.12% vanillin, IPTG induction No) was “++” and the growth ([5]; JM109 [pJH401], 0.12% vanillin, IPTG induction Yes) was “++”. The growth ([5]; JM109 [pJH401], 0.16% vanillin, IPTG induction No) was “−”, the growth ([5]; JM109 [pJH401], 0.16% vanillin, IPTG induction Yes) was “−” and the growth ([5]; JM109 [pJH401], 0.2% vanillin, IPTG induction No) was “−”. The growth ([5]; JM109 [pJH401], 0.2% vanillin, IPTG induction Yes) was “−”, the growth ([5]; JM109 [pJH402], 0.08% vanillin, IPTG induction No) was “++” and the growth ([5]; JM109 [pJH402], 0.08% vanillin, IPTG induction Yes) was “++”. The growth ([5]; JM109 [pJH402], 0.12% vanillin, IPTG induction No) was “++”, the growth ([5]; JM109 [pJH402], 0.12% vanillin, IPTG induction Yes) was “++” and the growth ([5]; JM109 [pJH402], 0.16% vanillin, IPTG induction No) was “+”. The growth ([5]; JM109 [pJH402], 0.16% vanillin, IPTG induction Yes) was “++”, the growth ([5]; JM109 [pJH402], 0.2% vanillin, IPTG induction No) was “−” and the growth ([5]; JM109 [pJH402], 0.2% vanillin, IPTG induction Yes) was “−”. For the same compound, the growth ([5]; JM109 [pJH410], 0.08% vanillin, IPTG induction Yes) was “++”, the growth ([5]; JM109 [pJH410], 0.12% vanillin, IPTG induction No) was “++” and the growth ([5]; JM109 [pJH410], 0.12% vanillin, IPTG induction Yes) was “++”. For the same compound, the growth ([5]; JM109 [pJH410], 0.16% vanillin, IPTG induction No) was “++”, the growth ([5]; JM109 [pJH410], 0.16% vanillin, IPTG induction Yes) was “+” and the growth ([5]; JM109 [pJH410], 0.2% vanillin, IPTG induction Yes) was “−”. For the same compound, the growth ([5]; JM109 [pKK223-3], 0.08% vanillin, IPTG induction No) was “++”, the growth ([5]; JM109 [pKK223-3], 0.08% vanillin, IPTG induction Yes) was “++” and the growth ([5]; JM109 [pKK223-3], 0.12% vanillin, IPTG induction No) was “++”. The growth ([5]; JM109 [pKK223-3], 0.12% vanillin, IPTG induction Yes) was “++”, the growth ([5]; JM109 [pKK223-3], 0.16% vanillin, IPTG induction No) was “−” and the growth ([5]; JM109 [pKK223-3], 0.16% vanillin, IPTG induction Yes) was “−”. The growth ([5]; JM109 [pKK223-3], 0.2% vanillin, IPTG induction No) was “−” and the growth ([5]; JM109 [pKK223-3], 0.2% vanillin, IPTG induction Yes) was “−”.
